Data reported in US6825225B2, “Bicyclic isoxazolinones as antibacterial agents” (Pharmacia & Upjohn Company, priority 2000, dated 2004).
≈ marks a conversion by molar mass, not a printed value.

Test system: Methicillin-susceptible S. aureus UC®9213
Assay: Minimum inhibitory concentration (MIC) by agar dilution
Format: cell-based
Conditions: Staphylococcus aureus, UC9213, lowest concentration that inhibits visible growth, read-out: Antibacterial Activity, Minimum Inhibitory Concentration, S.A.
Description: The isoxazolinone antibacterial agents of this invention have useful activity against a variety of organisms. The in vitro activity of compounds of this invention can be assessed by standard testing procedures such as the determination of minimum inhibitory concentration (MIC) by agar dilution as described in “Approved Standard. Methods for Dilution Anti microbial Susceptibility Tests for Bacteria That Grow Aerobically”, 3rd. ed., published 1993 by the National Committee for Clinical Laboratory Standards, Villanova, Pa., USA. S.A is Methicillin-susceptible S. aureus UC®9213. Minimum inhibitory concentration refers to lowest concentration of drug (μg/mL) that inhibits visible growth of the organism.

Compound | MIC [µg/mL]
CN[C@H](CC(C)C)C(=O)N[C@H]1C(=O)N[C@@H](CC(N)=O)C(=O)N[C@H]2C(=O)N[C@H]3C(=O)N[C@H](C(=O)N[C@H](C(=O)O)c4cc(O)cc(O)c4-c4cc3ccc4O)[C@H](O)c3ccc(c(Cl)c3)Oc3cc2cc(c3O[C@@H]2O[C@H](CO)[C@@H](O)[C@H](O)[C@H]2O[C@H]2C[C@](C)(N)[C@H](O)[C@H](C)O2)Oc2ccc(cc2Cl)[C@H]1O [vancomycin] | 1 (≈ 0.69 µM)
CC(=O)NCn1cc(-c2ccc3c(c2)CC(C)N3C=O)c(=O)o1 (centres unmarked) [Example 1, N-{[4-(N-formyl-2-methylindolinyl)-5-oxo-isoxazol-2-yl]methyl}acetamide] | 2 (≈ 6.34 µM)
